# Experimental data: patent publication US20240374590A1, “COMPOSITIONS AND METHODS FOR TREATING CANCER” (A2A PHARMACEUTICALS, INC., priority 2021, published 2024)
# Experiments:
# [1] = system: HCT-116 human colon carcinoma cell line; experiment: Cell viability assay (SRB) in HCT-116; type: cell-based; conditions: 72 hours after treatment, read-out: HCT116 IC50
# Protocol: (§1) Human colon carcinoma cell line HCT-116 was a kind gift from Igor Ronninson from University of South Caroli, Columbia, USA. Human breast cancer cell line, JIMT-1 was kindly provided by Ali Osmay Güre from Bilkent University, Ankara, Turkey. Cells were cultured in Dulbecco's modified Eagle's medium (Lonza, NJ, USA), supplemented with 10% fetal bovine serum (FBS, Lonza), 1% non-essential amino acid (NEAA), 2 mM L-glutamine (Sigma Aldrich, MO, USA) and 50 U/ml penicillin/streptomycin (P/S). HCT-116 cells were cultured in McCoy's 5A (modified) (Gibco) medium supplemented with FBS, NEAA, L-glutamine and P/S. All cell lines were tested regularly using MycoAlert Mycoplasma Detection Kit (Lonza). The cumulative length of the cells between thawing and use in the experiments was less than 20 passages.
# (§2) Newly synthesized molecules were dissolved in 100% DMSO to yield a stock concentration of 10 mM. For cell viability assay, JIMT-1 (3×10^3 cells/well) and HCT-116 (4×10^3), cells were seeded into 96-well plates, and 24 hours after cell seeding inhibitor treatments were performed at different concentrations. Cell viability was measured 72 hours after treatment with Sulforhodamine B (SRB, Sigma Aldrich) assay as recommended by the manufacturer.
# [2] = system: JIMT-1 human breast cancer cell line; experiment: Cell viability assay (SRB) in JIMT-1; type: cell-based; conditions: 72 hours after treatment, read-out: JIMT1 IC50
# Protocol: as §1, §2
IC50 [1],IC50 [2],SMILES
10 nM,6 nM,"COc1ccc(-c2cc(Nc3ccnc(N4CCC4)n3)[nH]n2)c(F)c1 [Compound 153, 2-(azetidin-1-yl)-N-(3-(2-fluoro-4-methoxyphenyl)-1H-pyrazol-5-yl)pyrimidin-4-amine]"
76 nM,47 nM,"COc1ccc(-c2cc(Nc3ccnc(N4CCCC4C)n3)[nH]n2)c(F)c1 (stereo not drawn) [Compound 159, N-(3-(2-fluoro-4-methoxyphenyl)-1H-pyrazol-5-yl)-2-(2-methylpyrrolidin-1-yl)pyrimidin-4-amine]"
147 nM,39 nM,"COc1ccc(-c2cc(Nc3ccnc(N4CCC(C)C4)n3)[nH]n2)c(F)c1 (stereo not drawn) [Compound 160, N-(3-(2-fluoro-4-methoxyphenyl)-1H-pyrazol-5-yl)-2-(3-methylpyrrolidin-1-yl)pyrimidin-4-amine]"
89 nM,41 nM,"COc1ccc(-c2cc(Nc3ccnc(N4CCCCCC4)n3)[nH]n2)c(F)c1 [Compound 167, 2-(azepan-1-yl)-N-(3-(2-fluoro-4-methoxyphenyl)-1H-pyrazol-5-yl)pyrimidin-4-amine]"
4480 nM,2630 nM,"COc1ccc(-c2n[nH]c(Nc3ccnc(N4CCOCC4)n3)c2C)cc1 [Compound 181, N-(3-(4-methoxyphenyl)-4-methyl-1H-pyrazol-5-yl)-2-morpholinopyrimidin-4-amine]"
20000 nM,8790 nM,"COc1ccc(-c2cc(Nc3ccnc(N4CCOCC4)n3)n(C)n2)cc1 [Compound 184, N-(3-(4-methoxyphenyl)-1-methyl-1H-pyrazol-5-yl)-2-morpholinopyrimidin-4-amine]"
228 nM,158 nM,"COc1ccc(-c2cc(Nc3ccnc(N4C[C@@H](C)O[C@@H](C)C4)n3)n(C)n2)c(F)c1 [Compound 187, 2-((2R,6S)-2,6-dimethylmorpholino)-N-(3-(2-fluoro-4-methoxyphenyl)-1-methyl-1H-pyrazol-5-yl)pyrimidin-4-amine]"
484 nM,251 nM,"COc1ccc(-c2cc(Nc3ccnc(N4C[C@@H](C)O[C@@H](C)C4)n3)nn2C)c(F)c1 [Compound 190, 2-((2R,6S)-2,6-dimethylmorpholino)-N-(5-(2-fluoro-4-methoxyphenyl)-1-methyl-1H-pyrazol-3-yl)pyrimidin-4-amine]"
1520 nM,1570 nM,"C[C@@H]1CN(c2nccc(Nc3cc(-c4ccc(C#N)cc4)n[nH]3)n2)C[C@H](C)O1 [Compound 191b, 4-(5-((2-((2R,6S)-2,6-dimethylmorpholino)pyrimidin-4-yl)amino)-1H-pyrazol-3-yl)benzonitrile]"
8970 nM,4640 nM,"C[C@@H]1CN(c2nccc(Nc3cc(-c4ccc(OC(F)(F)F)c(Cl)c4)n[nH]3)n2)C[C@H](C)O1 [Compound 192b, N-(3-(3-chloro-4-(trifluoromethoxy)phenyl)-1H-pyrazol-5-yl)-2-((2R,6S)-2,6-dimethylmorpholino)pyrimidin-4-amine]"
619 nM,383 nM,"C[C@@H]1CN(c2nccc(Nc3cc(-c4ccc(F)cc4)[nH]n3)n2)C[C@H](C)O1 [Compound 196, 2-((2R,6S)-2,6-dimethylmorpholino)-N-(5-(4-fluorophenyl)-1H-pyrazol-3-yl)pyrimidin-4-amine]"
386 nM,143 nM,"C[C@@H]1CN(c2nccc(Nc3cc(-c4ccc(C(C)(F)F)cc4)n[nH]3)n2)C[C@H](C)O1 [Compound 200, N-(3-(4-(1,1-difluoroethyl)phenyl)-1H-pyrazol-5-yl)-2-((2R,6S)-2,6-dimethylmorpholino)pyrimidin-4-amine]"
91 nM,76 nM,"C[C@@H]1CN(c2nccc(Nc3cc(-c4ccc(OC(F)F)cc4)n[nH]3)n2)C[C@H](C)O1 [Compound 201, N-(3-(4-(difluoromethoxy)phenyl)-1H-pyrazol-5-yl)-2-((2R,6S)-2,6-dimethylmorpholino)pyrimidin-4-amine]"
722 nM,187 nM,"C[C@@H]1CN(c2nccc(Nc3cc(-c4ccc(C(F)F)cc4)n[nH]3)n2)C[C@H](C)O1 [Compound 202, N-(3-(4-(difluoromethyl)phenyl)-1H-pyrazol-5-yl)-2-((2R,6S)-2,6-dimethylmorpholino)pyrimidin-4-amine]"
2490 nM,1700 nM,"COc1cc(-c2cc(Nc3ccnc(N4C[C@@H](C)O[C@@H](C)C4)n3)[nH]n2)cc(OC)c1OC [Compound 203, 2-((2R,6S)-2,6-dimethylmorpholino)-N-(3-(3,4,5-trimethoxyphenyl)-1H-pyrazol-5-yl)pyrimidin-4-amine]"
96 nM,27 nM,"C[C@@H]1CN(c2nccc(Nc3cc(-c4ccc5occc5c4)n[nH]3)n2)C[C@H](C)O1 [Compound 205, N-(3-(benzofuran-5-yl)-1H-pyrazol-5-yl)-2-((2R,6S)-2,6-dimethylmorpholino)pyrimidin-4-amine]"
5530 nM,974 nM,"COc1ccc(-c2cc(Nc3ccnc(N4C[C@@H](C)O[C@@H](C)C4)n3)[nH]n2)cc1C(F)(F)F [Compound 207, 2-((2R,6S)-2,6-dimethylmorpholino)-N-(3-(4-methoxy-3-(trifluoromethyl)phenyl)-1H-pyrazol-5-yl)pyrimidin-4-amine]"
448 nM,212 nM,"C[C@@H]1CN(c2nccc(Nc3cc(-c4ccc(Br)cc4)n[nH]3)n2)C[C@H](C)O1 [Compound 208, N-(3-(4-bromophenyl)-1H-pyrazol-5-yl)-2-((2R,6S)-2,6-dimethylmorpholino)pyrimidin-4-amine]"
31 nM,30 nM,"C[C@@H]1CN(c2nccc(Nc3cc(-c4ccc(OCF)cc4)n[nH]3)n2)C[C@H](C)O1 [Compound 210, 2-((2R,6S)-2,6-dimethylmorpholino)-N-(3-(4-(fluoromethoxy)phenyl)-1H-pyrazol-5-yl)pyrimidin-4-amine]"
39 nM,43 nM,"C[C@@H]1CN(c2nccc(Nc3cc(-c4ccc5c(c4)CCC5)[nH]n3)n2)C[C@H](C)O1 [Compound 211, N-(5-(2,3-dihydro-1H-inden-5-yl)-1H-pyrazol-3-yl)-2-((2R,6S)-2,6-dimethylmorpholino)pyrimidin-4-amine]"
5 nM,6 nM,"C[C@@H]1CN(c2nccc(Nc3cc(-c4ccc5c(ccn5C)c4)n[nH]3)n2)C[C@H](C)O1 [Compound 217, 2-((2R,6S)-2,6-dimethylmorpholino)-N-(3-(1-methyl-1H-indol-5-yl)-1H-pyrazol-5-yl)pyrimidin-4-amine]"
20 nM,13 nM,"COc1cc(F)c(-c2cc(Nc3ccnc(N4C[C@@H](C)O[C@@H](C)C4)n3)[nH]n2)cc1F [Compound 218, N-(3-(2,5-difluoro-4-methoxyphenyl)-1H-pyrazol-5-yl)-2-((2R,6S)-2,6-dimethylmorpholino)pyrimidin-4-amine]"
2260 nM,1430 nM,"CC1COCC(C)N1c1nccc(Nc2cc(-c3ccc(OC(F)F)cc3)n[nH]2)n1 (stereo not drawn) [Compound 227, N-(3-(4-(difluoromethoxy)phenyl)-1H-pyrazol-5-yl)-2-(3,5-dimethylmorpholino)pyrimidin-4-amine]"
62 nM,96 nM,"CC1COCCN1c1nccc(Nc2cc(-c3ccc(OC(F)F)cc3)n[nH]2)n1 (stereo not drawn) [Compound 229, N-(3-(4-(difluoromethoxy)phenyl)-1H-pyrazol-5-yl)-2-(3-methylmorpholino)pyrimidin-4-amine]"
1060 nM,103 nM,"C[C@@H]1CN(c2nccc(Nc3cc(-c4ccc(OC(F)F)cc4)n[nH]3)n2)C[C@@H](C)O1 [Compound 240, N-(3-(4-(difluoromethoxy)phenyl)-1H-pyrazol-5-yl)-2-((2R,6R)-2,6-dimethylmorpholino)pyrimidin-4-amine]"
1810 nM,46 nM,"C[C@H]1CN(c2nccc(Nc3cc(-c4ccc(OC(F)F)cc4)n[nH]3)n2)C[C@H](C)O1 [Compound 241, N-(3-(4-(difluoromethoxy)phenyl)-1H-pyrazol-5-yl)-2-((25,6S)-2,6-dimethylmorpholino)pyrimidin-4-amine]"
1490 nM,110 nM,"FC(F)Oc1ccc(-c2cc(Nc3ccnc(N4CCCC4)n3)[nH]n2)cc1 [Compound 242, N-(3-(4-(difluoromethoxy)phenyl)-1H-pyrazol-5-yl)-2-(pyrrolidin-1-yl)pyrimidin-4-amine]"
53 nM,17 nM,"FC(F)Oc1ccc(-c2cc(Nc3ccnc(N4CCCCC4)n3)[nH]n2)cc1 [Compound 243, N-(3-(4-(difluoromethoxy)phenyl)-1H-pyrazol-5-yl)-2-(piperidin-1-yl)pyrimidin-4-amine]"
1120 nM,46 nM,"FC(F)Oc1ccc(-c2cc(Nc3ccnc(N4CCC4)n3)[nH]n2)cc1 [Compound 244, 2-(azetidin-1-yl)-N-(3-(4-(difluoromethoxy)phenyl)-1H-pyrazol-5-yl)pyrimidin-4-amine]"
≥ 10000 nM,47 nM,"CC1CN(c2nccc(Nc3cc(-c4ccc(OC(F)F)cc4)n[nH]3)n2)C1 [Compound 245, N-(3-(4-(difluoromethoxy)phenyl)-1H-pyrazol-5-yl)-2-(3-methylazetidin-1-yl)pyrimidin-4-amine]"
